Results taken from the NIST ThermoML archive (doi:10.1016/j.fluid.2015.12.055).

Conditions: Liquid, Vibrating tube method

CCn1cc[n+](C)c1.O=S(=O)([O-])C(F)(F)C(F)(F)C(F)(F)C(F)(F)F
Conditions	mass density [kg/m3]
298.15 K, 101.33 kPa	1546.54
303.15 K, 101.33 kPa	1541.24
313.15 K, 101.33 kPa	1530.71
313.15 K, 510 kPa	1530.15
313.15 K, 1007 kPa	1530.64
313.15 K, 2007 kPa	1531.73
313.15 K, 3005 kPa	1532.82
313.15 K, 4004 kPa	1533.91
313.15 K, 5000 kPa	1534.99
313.15 K, 5999 kPa	1536.06
323.15 K, 101.33 kPa	1520.31
333.15 K, 101.33 kPa	1510.01
343.15 K, 101.33 kPa	1499.78
353.15 K, 101.33 kPa	1489.64
363.15 K, 101.33 kPa	1479.58

CCn1cc[n+](C)c1.O=S(=O)([N-]S(=O)(=O)C(F)(F)C(F)(F)F)C(F)(F)C(F)(F)F
Conditions	mass density [kg/m3]
273.15 K, 101.33 kPa	1621.64
283.15 K, 101.33 kPa	1610.4
293.15 K, 101.33 kPa	1599.21
298.15 K, 101.33 kPa	1593.65
303.15 K, 101.33 kPa	1588.12
313.15 K, 101.33 kPa	1577.13
313.15 K, 497 kPa	1577.9
313.15 K, 1001 kPa	1578.46
313.15 K, 1999 kPa	1579.57
313.15 K, 3003 kPa	1580.67
313.15 K, 4007 kPa	1581.77
313.15 K, 5000 kPa	1582.86
313.15 K, 6004 kPa	1583.94
323.15 K, 101.33 kPa	1566.23
333.15 K, 101.33 kPa	1555.4
343.15 K, 101.33 kPa	1544.63
353.15 K, 101.33 kPa	1533.92
363.15 K, 101.33 kPa	1523.27

CCn1cc[n+](C)c1.O=S(=O)([N-]S(=O)(=O)C(F)(F)F)C(F)(F)F
Conditions	mass density [kg/m3]
273.15 K, 101.33 kPa	1544.43
283.15 K, 101.33 kPa	1534.1
293.15 K, 101.33 kPa	1523.89
298.15 K, 101.33 kPa	1518.83
303.15 K, 101.33 kPa	1513.78
313.15 K, 101.33 kPa	1503.75
313.15 K, 508 kPa	1504.27
313.15 K, 1002 kPa	1504.75
313.15 K, 1999 kPa	1505.7
313.15 K, 3001 kPa	1506.65
313.15 K, 3997 kPa	1507.6
313.15 K, 5001 kPa	1508.55
313.15 K, 6005 kPa	1509.49
323.15 K, 101.33 kPa	1493.8
333.15 K, 101.33 kPa	1483.92
343.15 K, 101.33 kPa	1474.1
353.15 K, 101.33 kPa	1464.36
363.15 K, 101.33 kPa	1454.67

CCn1cc[n+](C)c1.F[B-](F)(F)F [1-ethyl-3-methylimidazolium tetrafluoroborate]
Conditions	mass density [kg/m3]
293.15 K, 101.33 kPa	1283.53
298.15 K, 101.33 kPa	1279.7
303.15 K, 101.33 kPa	1275.89
313.15 K, 101.33 kPa	1268.33
313.15 K, 503 kPa	1268.82
313.15 K, 999 kPa	1269.09
313.15 K, 2001 kPa	1269.74
313.15 K, 2998 kPa	1270.26
313.15 K, 4000 kPa	1270.93
313.15 K, 5002 kPa	1271.59
313.15 K, 6000 kPa	1272.21
323.15 K, 101.33 kPa	1260.85
333.15 K, 101.33 kPa	1253.45
343.15 K, 101.33 kPa	1246.11
353.15 K, 101.33 kPa	1238.83
363.15 K, 101.33 kPa	1231.6
